In US8791079B2, “Methods for treating heart failure by inhibiting the mitochondrial sodium-calcium exchanger (mNCE)” (priority 2009, dated 2014):
Several values for one entry are separate records, joined by “and”; a condition that tells them apart may be missing. Identical values can stand only once. Marks after values point to notes of the source that are not given here.

Key:
[1] = tested on: Guinea pig ventricular myocytes; assay: ROS / oxidative stress (CM-H2DCFDA, CM-DCF oxidation) in isolated myocytes; type: cell-based; details: 100-nM isoproterenol with 1-μM ouabain, without or with 1-μM CGP-37157; 1-Hz stimulation
Description: Guinea pig ventricular myocytes were isolated by enzymatic digestion as described previously. O'Rourke, B., et al., “Oscillations of membrane current and excitability driven by metabolic oscillations in heart cells,” Science, 265(5174):962-966 (Aug. 12, 1994). Cells were suspended in Dulbecco's Modification of Eagle's Medium (DMEM) supplemented with 5% fetal bovine serum, 1% penicillin/streptomycin, and 15 mmol/L HEPES, pH 7.4, and stored in a 5% CO2 incubator at 37° C.
Cytosolic Ca^2+ ([Ca^2+]c), mitochondrial Ca^2+ ([Ca^2+]m), and [Na^+]i were measured with the fluorescent indicators indo-1, rhod-2, and sodium-binding benzofuran isophthalate (SBFI), respectively (Invitrogen, Carlsbad, Calif.), and mitochondrial NADH was measured as the cellular autofluorescence with 360-nm excitation/450-nm emission. Indo-1 was loaded into cell with the membrane permeable form, indo-1 AM. To minimize indo-1 loading into the mitochondrial compartment, cells were briefly incubated with indo-1 AM at room temperature for 20 min. Rhod-2 and SBFI experiments were carried out as previously described. Maack et al., supra, Liu and O'Rourke, supra. […]
Isolated ventricular myocytes were loaded into a heated field-stimulation chamber (Warner Instruments, Hamden, Conn.) at 37° C. on the stage of a fluorescence microscope (Nikon Eclipse TE300, Nikon Instruments, Inc., Melville, N.Y.). […]

Guinea pig hearts [2] = assay: Oxygen consumption in isolated perfused hearts
Description: (§1) Guinea pig hearts were quickly excised under anesthesia and mounted on a modified Langendorff apparatus attached to a Powerlab system (AD Instruments, Colorado Springs, Colo.). Hearts were perfused with gassed (95/5% O2/CO2) control buffer containing: 118-mM NaCl, 24-mM NaHCO3, 1.2-mM KH2PO4, 4.75-mM KCl, 1.2-mM MgSO4, 2.0-mM CaCl2, and 10-mM glucose. A buffer-filled latex balloon (Harvard apparatus) was inserted through the mitral valve into the left ventricle. Hearts were suspended in a buffer-filled heating chamber maintained at 37° C. and two electrodes were placed into the bath for volume-conducted electrocardiogram recordings. Heart rate, left ventricular developed pressure (LVDP), maximal rates of contraction and relaxation (±dP/dt), oxygen consumption, and electrocardiograms (ECG) were recorded on a computer. After a ten-minute equilibration period, hearts were subjected to the following protocol: ten-minute baseline recording while the heart was perfused with control buffer, ten-minute recording while 0.25-μM ouabain with or without 1 μM CGP-37157, and sixty-minute recording while hearts were stimulated with 25-nM isoproterenol. The measurements of hemodynamic parameters were determined by taking the average during the last two minutes before ouabain treatment (baseline) and for two minutes during the maximal effect on LVDP of either ouabain or isoproterenol.
Cardiac O2 concentration was measured with an O2 probe attached to a PowerLab system (AD Instruments). The probe was calibrated with 95% O2-saturated buffer as 100% and 100% N2-saturated buffer as 0%. The molar concentration of O2 consumption was calculated from percentage concentration with the following equation: VO2(μmol/min/g dwt)=CF×(0.02373/22.414)×((760−p)/760)×(ΔO2%/100)/dwt
where CF is coronary flow (mL/min); 0.02373 is the absorption coefficient of O2 in H2O at 37° C.; 22.414 is the volume (L) of 1 mol gas at STP; 760 is 1 atm in mm Hg; p equals 47.067, which is the vapor pressure of H2O at 37° C.; ΔO2% is the difference in O2 percentage concentration between inflow buffer collected from cannula before heart was mounted and outflow buffer collected from pulmonary artery; dwt is dry heart weight.

Guinea pig hearts [3] = assay: Arrhythmia score and ventricular fibrillation in isolated perfused hearts; details: without or with CGP-37157; for Incidence of VF: hearts with VF / hearts, ouabain treatment and isoproterenol stimulation; for arrhythmia score: ten-minute ouabain treatment (0.25 μM), modified Score A, 0-4
Description: as §1
Arrhythmias were characterized in accordance with the Lambeth Conventions, see Walker, M. J., et al., Cardiovasc. Res., 22(7):447-455 (July 1988), and scores were tabulated for the ten-minute period of ouabain treatment using modified Score A as described by Curtis, M. J. and Walker, M. J., “Quantification of arrhythmias using scoring systems: an examination of seven scores in an in vivo model of regional myocardial ischaemia,” Cardiovasc. Res., 22(9):656-665 (September 1988). Briefly, each heart was given a score based on the following criteria: 0: <50 ventricular premature beats; 1: 50-499 ventricular premature beats; 2: >500 ventricular premature beats and/or one episode of spontaneously reverting ventricular tachycardia or ventricular fibrillation; 3: more than one episode of spontaneously reverting ventricular tachycardia or fibrillation (<2 min); 4: >2 min of ventricular tachycardia or fibrillation.

[4] = after ten minutes treatment of ouabain, without or with CGP-37157

## O=C1CSC(c2ccccc2Cl)c2cc(Cl)ccc2N1 (stereo not shown) [CGP-37157, 7-chloro-5-(2-chlorophenyl)-1,5-dihydro-4,1-benzothiazepin-2(3H)-one]
[1]
  oxidation of CM-DCF (oxidative stress): abolished the increase in oxidative stress induced by ouabain
Guinea pig hearts [2]; [4]
  increase of whole-heart oxygen consumption (VO2) compared to baseline: 32%
Guinea pig hearts [2]; ouabain followed by isoproterenol, without (isoproterenol) or with CGP-37157
  increase of whole-heart oxygen consumption (VO2) compared to baseline: 53%
Guinea pig hearts [3]
  Incidence of VF: 2 out of 7
  arrhythmia score: 1.1±0.4
Guinea pig hearts [3]; listed as CGP
  Incidence of VF: 2/7*

## C[C@@H]1O[C@@H](O[C@H]2C[C@@H](O)[C@]3(CO)[C@H]4[C@H](O)C[C@]5(C)[C@@H](C6=CC(=O)OC6)CC[C@]5(O)[C@@H]4CC[C@]3(O)C2)[C@H](O)[C@H](O)[C@H]1O [ouabain, 1β,3β,5β,11α,14,19-Hexahydroxycard-20(22)-enolide 3-(6-deoxy-α-L-mannopyranoside, reference compound]
[1]
  oxidation of CM-DCF (oxidative stress): higher rates of oxidation of CM-DCF
Guinea pig hearts [2]; [4]
  increase of whole-heart oxygen consumption (VO2) compared to baseline: 18%
Guinea pig hearts [3]
  Incidence of VF: 7 out of 8 and 7/8
  arrhythmia score: 2.7±0.5
